{"source": "patent US5744424A", "key": {"[1]": {"settings": "water; 18° C.; cited from earlier work"}, "turf grasses": {"tested_on": "turf grasses", "assay": "Force required to extract grass sod plugs (root density, FIG. 4)"}, "[2]": {"settings": "cited from earlier work"}, "[3]": {"settings": "cited from earlier work", "remark": "listed apart in the source"}, "plant species": {"tested_on": "plant species", "settings": "cited from earlier work"}, "physchem [4]": {"assay": "physchem", "from_the_text": "where Percent \"S\" is the per unit volume of N^6 BA expressed as a percentage and \"N\" is the Normality of the solution after dissolution of N^6 BA in the solution."}, "physchem [5]": {"assay": "physchem", "settings": "water koh 0.0025 n", "from_the_text": "The solubility data enable address a second underlying problem encountered when the aqueous hydroxide solution is employed."}}}
{"smiles": "[K+].[OH-]", "note": "[KOH, potassium hydroxide]", "values": [{"measurement": "normality of saturated solution", "setting": "[1]", "result": 18.0}]}
{"smiles": "[Mg+2].[OH-].[OH-]", "note": "[magnesium hydroxide]", "values": [{"measurement": "normality of saturated solution", "setting": "[1]", "result": 8.2}]}
{"smiles": "[Na+].[OH-]", "note": "[NaOH, sodium hydroxide]", "values": [{"measurement": "normality of saturated solution", "setting": "[1]", "result": 21.0}]}
{"smiles": "O.O.O.O.O.O.O.O=S(=O)([O-])[O-].[Fe+2]", "note": "[iron, Ferrous sulphate heptahydrate]", "values": [{"measurement": "root development", "setting": "turf grasses; iron to N^6 BA molecular ratio of about 200:1 or greater", "result": "substantially decreases root development"}, {"measurement": "practical concentration of iron in liquid spray concentrates", "setting": "[2]", "result": "5-6%"}]}
{"smiles": "c1ccc(CNc2ncnc3nc[nH]c23)cc1", "note": "[N^6 BA]", "values": [{"measurement": "efficacy of N^6 BA in presence of iron", "setting": "turf grasses; large amount of ferrous iron ions", "result": "a decrease in the efficacy of N^6 BA"}, {"measurement": "dissolved concentration in mineral acids", "setting": "[3]; mineral acids", "result": "approximately 5%"}, {"measurement": "solubility in water", "setting": "[3]; water", "result": "about 0.00044 grams per 100 milliliters"}, {"measurement": "responses elicited in plants", "setting": "plant species; general", "result": "promotion of cell division, inhibition of respiration, increasing retention of water and drought resistance, enhancing root and top growth with change in root/top ratios as well as shortening plant internodes"}, {"measurement": "chlorophyll retention", "setting": "plant species; pre and post harvest commodities", "result": "increase chlorophyll retention"}, {"measurement": "solubility", "setting": "physchem [4]; aqueous koh 2.875 n", "result": "~455", "unit": "mg/mL"}, {"measurement": "solubility", "setting": "physchem [4]; koh in 95% ethanol, organic solvent or mixture", "result": "~540", "unit": "mg/mL"}, {"measurement": "solubility", "setting": "physchem [5]", "result": 0.062, "unit": "mg/mL"}]}
{"smiles": "[OH-].[OH-].[Zn+2]", "note": "[zinc hydroxide]", "values": [{"measurement": "normality of saturated solution", "setting": "[1]", "result": 9.4}]}
{"smiles": "[Ca+2].[OH-].[OH-]", "note": "[Calcium hydroxide]", "values": [{"measurement": "normality of saturated solution", "setting": "[1]", "result": 9.6}]}
